Converted amounts (≈) assume the structure as drawn.
Legend:
Format in all cases: cell-based
[1] = test system: Propionibacterium acnes (ATCC 6919); test: In vitro anti-bacterial activity (MIC90), anaerobic reference bacteria; conditions: Cutibacterium acnes, ATCC6919
[2] = test system: Peptostreptococcus micros (GIFU 7824); test: as above; conditions: Parvimonas micra
Streptococcus pneumoniae = test: In vitro anti-bacterial activity (MIC90), ophthalmologic clinical bacteria isolates; conditions: Gram-positive
[3] = test system: Gentamycin-resistant Staphylococcus aureus; test: as above
[4] = test system: Propionibacterium acnes (GAI 5419); test: In vitro anti-bacterial activity (MIC90), anaerobic reference bacteria; conditions: Cutibacterium acnes
[5] = test system: Bacteroides thetaiotaomicron (GAI 0659); test: as above; conditions: Bacteroides thetaiotaomicron
[6] = test system: Bacteroides vulgatus (GAI 0673); test: as above; conditions: Phocaeicola vulgatus
Staphylococcus aureus = test: In vitro anti-bacterial activity (MIC90), ophthalmologic clinical bacteria isolates; conditions: Gram-positive
[7] = test system: Ofloxacin-resistant Staphylococcus aureus; test: as above
[8] = test system: Staphylococcus aureus (No. 419); test: In vitro anti-bacterial activity (MIC90), methicillin-resistant Staphylococcus aureus isolates; conditions: methicillin-resistant Staphylococcus aureus (No. 419)
Method: (§1) Anti-bacterial activity of the compound having Formula III was tested against several Gram-negative reference bacteria strains and compared to the anti-bacterial activity of three commercially available antibiotics (nadifloxacin, ofloxacin, and sparfloxacin). The results are shown in Table 2 as MIC90 values (minimum concentration of the active compound required to inhibit ninety percent of the growth of a specified pathogen, in μg/ml).
(§2) Anti-bacterial activity of the compound having Formula III was tested against some methicillin-resistant Staphylococcus aureus bacteria strains and compared to the anti-bacterial activity of three commercially available antibiotics (nadifloxacin, ofloxacin, and sparfloxacin).

[9] = test system: Staphylococcus aureus (No. 395); test: as above; conditions: methicillin-resistant Staphylococcus aureus (No. 395)
Method: as §1, §2

[10] = test system: Staphylococcus aureus (ATCC 33593); test: as above; conditions: ATCC33593; methicillin-resistant Staphylococcus aureus (ATCC 33593)
Method: as §1, §2

[11] = test system: Staphylococcus aureus (No. 421); test: as above; conditions: methicillin-resistant Staphylococcus aureus (No. 421)
Method: as §1, §2

[12] = test system: Staphylococcus aureus (No. 415); test: as above; conditions: methicillin-resistant Staphylococcus aureus (No. 415)
Method: as §1, §2

[13] = test system: Staphylococcus aureus (No. 420); test: as above; conditions: methicillin-resistant Staphylococcus aureus (No. 420)
Method: as §1, §2

[14] = test system: Staphylococcus aureus (ATCC 33592); test: as above; conditions: ATCC33592; methicillin-resistant Staphylococcus aureus (ATCC 33592)
Method: as §1, §2

[15] = test system: Staphylococcus aureus (ATCC 33591); test: as above; conditions: ATCC33591; methicillin-resistant Staphylococcus aureus (ATCC 33591)
Method: as §1, §2

Haemophilus influenzae = test: In vitro anti-bacterial activity (MIC90), ophthalmologic clinical bacteria isolates; conditions: Gram-negative
[16] = test system: Bacteroides fragillis (GAI 0675); test: In vitro anti-bacterial activity (MIC90), anaerobic reference bacteria
Pseudomonas aeruginosa = test: In vitro anti-bacterial activity (MIC90), ophthalmologic clinical bacteria isolates; conditions: Gram-negative
Moraxella species = test: as above; conditions: Gram-negative
[17] = test system: Veillonella parvula (GAI 5602); test: In vitro anti-bacterial activity (MIC90), anaerobic reference bacteria
[18] = test system: Coagulase-negative Staphylococcus; test: In vitro anti-bacterial activity (MIC90), ophthalmologic clinical bacteria isolates; conditions: Gram-positive
[19] = test system: Staphylococcus aureus (FDA 209P); test: In vitro anti-bacterial activity (MIC90), Gram-positive reference strains; conditions: FDA209P
Method: as §1, with “μg/ml). Anti-bacterial activity of the compound having Formula III was tested against several Gram-positive reference bacteria strains and compared to the anti-bacterial activity of three commercially available antibiotics (nadifloxacin, ofloxacin, and sparfloxacin).” for “μg/ml).”

[20] = test system: Sarcina lutea (ATCC 9341); test: as above; conditions: Micrococcus luteus, ATCC9341
Method: as §1, with “μg/ml). Anti-bacterial activity of the compound having Formula III was tested against several Gram-positive reference bacteria strains and compared to the anti-bacterial activity of three commercially available antibiotics (nadifloxacin, ofloxacin, and sparfloxacin).” for “μg/ml).”

[21] = test system: Streptococcus faecalis (ATCC 29212); test: as above; conditions: Enterococcus faecalis, ATCC29212
Method: as §1, with “μg/ml). Anti-bacterial activity of the compound having Formula III was tested against several Gram-positive reference bacteria strains and compared to the anti-bacterial activity of three commercially available antibiotics (nadifloxacin, ofloxacin, and sparfloxacin).” for “μg/ml).”

[22] = test system: Streptococcus pyogenes (IID 698); test: as above; conditions: IID698
Method: as §1, with “μg/ml). Anti-bacterial activity of the compound having Formula III was tested against several Gram-positive reference bacteria strains and compared to the anti-bacterial activity of three commercially available antibiotics (nadifloxacin, ofloxacin, and sparfloxacin).” for “μg/ml).”

[23] = test system: Staphylococcus epidermidis (ATCC 12228); test: as above; conditions: ATCC12228
Method: as §1, with “μg/ml). Anti-bacterial activity of the compound having Formula III was tested against several Gram-positive reference bacteria strains and compared to the anti-bacterial activity of three commercially available antibiotics (nadifloxacin, ofloxacin, and sparfloxacin).” for “μg/ml).”

[24] = test system: Streptococcus pneumoniae (IID 553); test: as above; conditions: IID553
Method: as §1, with “μg/ml). Anti-bacterial activity of the compound having Formula III was tested against several Gram-positive reference bacteria strains and compared to the anti-bacterial activity of three commercially available antibiotics (nadifloxacin, ofloxacin, and sparfloxacin).” for “μg/ml).”

[25] = test system: Bacillis subtilis (ATCC 6633); test: as above
Method: as §1, with “μg/ml). Anti-bacterial activity of the compound having Formula III was tested against several Gram-positive reference bacteria strains and compared to the anti-bacterial activity of three commercially available antibiotics (nadifloxacin, ofloxacin, and sparfloxacin).” for “μg/ml).”

[26] = test system: Staphylococcus aureus (Smith); test: as above
Method: as §1, with “μg/ml). Anti-bacterial activity of the compound having Formula III was tested against several Gram-positive reference bacteria strains and compared to the anti-bacterial activity of three commercially available antibiotics (nadifloxacin, ofloxacin, and sparfloxacin).” for “μg/ml).”

[27] = test system: Streptococcus pneniae (IID 554); test: as above; conditions: IID554
Method: as §1, with “μg/ml). Anti-bacterial activity of the compound having Formula III was tested against several Gram-positive reference bacteria strains and compared to the anti-bacterial activity of three commercially available antibiotics (nadifloxacin, ofloxacin, and sparfloxacin).” for “μg/ml).”

[28] = test system: Staphylococcus aureus (ATCC 25933); test: as above; conditions: ATCC25933
Method: as §1, with “μg/ml). Anti-bacterial activity of the compound having Formula III was tested against several Gram-positive reference bacteria strains and compared to the anti-bacterial activity of three commercially available antibiotics (nadifloxacin, ofloxacin, and sparfloxacin).” for “μg/ml).”

[29] = test system: Streptococcus pyogenes (Cook); test: as above
Method: as §1, with “μg/ml). Anti-bacterial activity of the compound having Formula III was tested against several Gram-positive reference bacteria strains and compared to the anti-bacterial activity of three commercially available antibiotics (nadifloxacin, ofloxacin, and sparfloxacin).” for “μg/ml).”

[30] = test system: Streptococcus faecalis (IFO 12964); test: as above; conditions: Enterococcus faecalis, IFO12964
Method: as §1, with “μg/ml). Anti-bacterial activity of the compound having Formula III was tested against several Gram-positive reference bacteria strains and compared to the anti-bacterial activity of three commercially available antibiotics (nadifloxacin, ofloxacin, and sparfloxacin).” for “μg/ml).”

Propionibacterium acnes = test: In vitro anti-bacterial activity (MIC90), ophthalmologic clinical bacteria isolates; conditions: Cutibacterium acnes, Gram-positive
[31] = test system: Gentamycin-resistant Pseudomonas aeruginosa; test: as above
[32] = test system: Clostridium perfringens (KZ 210); test: microbe, parasite or virus in culture
[33] = test system: Peptostreptococcus magnum (GAI 0664); test: In vitro anti-bacterial activity (MIC90), anaerobic reference bacteria
[34] = test system: Salmonella typhimurium (TD); test: In vitro anti-bacterial activity (MIC90), Gram-negative reference strains
Method: Anti-bacterial activity of the compound having Formula III was tested against several Gram-negative reference bacteria strains and compared to the anti-bacterial activity of three commercially available antibiotics (nadifloxacin, ofloxacin, and sparfloxacin).

[35] = test system: Propionibacterium acnes (ATCC 11828); test: In vitro anti-bacterial activity (MIC90), anaerobic reference bacteria; conditions: Cutibacterium acnes, ATCC11828
Corynebacterium species = test: In vitro anti-bacterial activity (MIC90), ophthalmologic clinical bacteria isolates; conditions: Gram-positive
[36] = test system: Penicillin-resistant Streptococcus pneumoniae; test: as above

CC1COc2c(N3CCN(C)CC3)c(F)cc3c(=O)c(C(=O)O)cn1c23 (stereo not shown) [Ofloxacin]
MIC90 [1]: 0.78 µg/mL (≈ 2.16 µM) | MIC90 [2]: 0.78 µg/mL (≈ 2.16 µM) | MIC90 (Streptococcus pneumoniae): 2 µg/mL (≈ 5.53 µM) | MIC90 [3]: 128 µg/mL (≈ 354 µM) | MIC90 [4]: 0.78 µg/mL (≈ 2.16 µM) | MIC90 [5]: 3.13 µg/mL (≈ 8.66 µM) | MIC90 [6]: 3.13 µg/mL (≈ 8.66 µM) | MIC90 (Staphylococcus aureus): 32 µg/mL (≈ 88.6 µM) | MIC90 [7]: > 128 µg/mL | MIC90 [8]: 3.13 µg/mL (≈ 8.66 µM) | MIC90 [9]: 0.2 µg/mL (≈ 0.553 µM) | MIC90 [10]: 0.2 µg/mL (≈ 0.553 µM) | MIC90 [11]: 1.56 µg/mL (≈ 4.32 µM) | MIC90 [12]: 0.78 µg/mL (≈ 2.16 µM) | MIC90 [13]: 1.56 µg/mL (≈ 4.32 µM) | MIC90 [14]: 0.39 µg/mL (≈ 1.08 µM) | MIC90 [15]: 0.05 µg/mL (≈ 0.138 µM) | MIC90 (Haemophilus influenzae): ≤ 0.06 µg/mL | MIC90 [16]: 1.56 µg/mL (≈ 4.32 µM) | MIC90 (Pseudomonas aeruginosa): 4 µg/mL (≈ 11.1 µM) | MIC90 (Moraxella species): 0.13 µg/mL (≈ 0.36 µM) | MIC90 [17]: 0.39 µg/mL (≈ 1.08 µM) | MIC90 [18]: 8 µg/mL (≈ 22.1 µM) | MIC90 [19]: 0.2 µg/mL (≈ 0.553 µM) | MIC90 [20]: 3.13 µg/mL (≈ 8.66 µM) | MIC90 [21]: 1.56 µg/mL (≈ 4.32 µM) | MIC90 [22]: 0.39 µg/mL (≈ 1.08 µM) | MIC90 [23]: 0.78 µg/mL (≈ 2.16 µM) | MIC90 [24]: 1.56 µg/mL (≈ 4.32 µM) | MIC90 [25]: 0.05 µg/mL (≈ 0.138 µM) | MIC90 [26]: 0.2 µg/mL (≈ 0.553 µM) | MIC90 [27]: 1.56 µg/mL (≈ 4.32 µM) | MIC90 [28]: 0.39 µg/mL (≈ 1.08 µM) | MIC90 [29]: 0.78 µg/mL (≈ 2.16 µM) | MIC90 [30]: 1.56 µg/mL (≈ 4.32 µM) | MIC90 (Propionibacterium acnes): 1 µg/mL (≈ 2.77 µM) | MIC90 [31]: 64 µg/mL (≈ 177 µM) | MIC90 [32]: 0.78 µg/mL (≈ 2.16 µM) | MIC90 [33]: 0.39 µg/mL (≈ 1.08 µM) | MIC90 [34]: 0.05 mμg/mL | MIC90 [35]: 1.56 µg/mL (≈ 4.32 µM) | MIC90 (Corynebacterium species): 32 µg/mL (≈ 88.6 µM) | MIC90 [36]: 2 µg/mL (≈ 5.53 µM)

Source: patent US20080200442A1, “Compositions and Methods for Treating, Reducing, Ameliorating, or Preventing Infections of the Ear or Upper Respiratory Tract” (priority 2007, published 2008)
